This test addresses human PAD4 (hPAD4) (Homo sapiens (Human), UniProt Q9UM07). Nature of the test: RFMS Human PAD4 Functional Assay 1. To be noted: RFMS assay 1; 5 nM hPAD4, 250 μM BAEE substrate, 50 μM calcium, 37° C. Format: biochemical. In a few lines: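 Citrullination product read by RapidFire triple-quad MRM against a modified-citrulline internal standard, after TCA stop and 30 min phenyl glyoxal step at 37 °C. Reaction: 250 μM BAEE, 5 nM human PAD4, 90 min at 37 °C, pH 7.5 HEPES buffer with 50 μM calcium and 5 μM TPEN, following 30 min compound–enzyme preincubation (max 50 μM).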

By IC50 is commonly meant the concentration that gives 50% inhibition.

Chain of human PAD4 (hPAD4) (Q9UM07 whole entry): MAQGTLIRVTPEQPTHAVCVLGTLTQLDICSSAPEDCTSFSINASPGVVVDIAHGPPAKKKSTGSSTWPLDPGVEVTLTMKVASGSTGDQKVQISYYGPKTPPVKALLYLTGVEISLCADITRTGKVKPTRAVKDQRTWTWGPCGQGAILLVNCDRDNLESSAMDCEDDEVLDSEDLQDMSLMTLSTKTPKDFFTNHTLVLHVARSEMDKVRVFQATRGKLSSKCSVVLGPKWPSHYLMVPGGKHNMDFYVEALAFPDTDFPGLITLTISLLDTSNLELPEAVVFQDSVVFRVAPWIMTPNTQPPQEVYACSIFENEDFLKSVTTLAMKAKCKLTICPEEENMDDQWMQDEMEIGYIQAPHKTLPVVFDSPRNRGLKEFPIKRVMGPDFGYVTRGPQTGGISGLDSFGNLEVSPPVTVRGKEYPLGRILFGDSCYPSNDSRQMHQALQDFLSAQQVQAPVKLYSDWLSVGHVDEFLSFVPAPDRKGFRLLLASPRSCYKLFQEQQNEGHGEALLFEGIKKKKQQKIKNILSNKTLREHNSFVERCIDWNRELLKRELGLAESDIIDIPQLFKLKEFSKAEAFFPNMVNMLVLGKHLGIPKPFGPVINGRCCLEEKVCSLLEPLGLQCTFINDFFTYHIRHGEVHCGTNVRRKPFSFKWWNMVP

Consider `COCC(=O)N1CC(c2cccc3cc(-c4nn5cc(C(=O)N6CCC[C@@H](N)C6)cc(OC)c5c4C)n(CC4CC4)c23)C1` [Example 529, (R)-1-(3-(2-(6-(3-Aminopiperidine-1-carbonyl)-4-methoxy-3-methylpyrazolo[1,5-a]pyridin-2-yl)-1-(cyclopropylmethyl)-1H-indol-7-yl)azetidin-1-yl)-2-methoxyethan-1-one], for which the IC50 was 1530 nM. The value for `Cc1c(-c2cc3cccc(C4CN(C(=O)[C@H]5CCC[C@@H](O)C5)C4)c3n2CC2CC2)nn2cc(C(=O)N3CCC[C@@H](N)C3)ccc12` [Example 534, ((R)-3-Aminopiperidin-1-yl)(2-(1-(cyclopropylmethyl)-7-(1-((1S,3R)-3-hydroxycyclohexane-1-carbonyl)azetidin-3-yl)-1H-indol-2-yl)-3-methylpyrazolo[1,5-a]pyridin-6-yl)methanone] was 440 nM; that for `Cc1c(-c2cc3cccc(C4CN(C(=O)[C@H]5CC[C@@H](O)CC5)C4)c3n2CC2CC2)nn2cc(C(=O)N3C[C@H](N)C[C@@H](F)C3)ccc12` [Example 538, ((3R,5R)-3-Amino-5-fluoropiperidin-1-yl)(2-(1-(cyclopropylmethyl)-7-(1-((1s,4s)-4-hydroxycyclohexane-1-carbonyl)azetidin-3-yl)-1H-indol-2-yl)-3-methylpyrazolo[1,5-a]pyridin-6-yl)methanone] was 40 nM; that for `Cc1c(-c2cc3cccc(OCC4CC(=O)N(C)C4)c3n2CC2CC2)nn2cc(C(=O)N3CCC[C@@H](N)C3)ccc12` (single isomer, unassigned) [Example 578] was 190 nM. Next, `COc1cc(C(=O)N2CC3CCC2[C@@H]3N)cc2sc(-c3cc4ccc(N5CCC(N)CC5)cc4n3CC3CC3)c(C)c12` (stereo partly drawn) [Example 130, ((7R)-7-Amino-2-azabicyclo[2.2.1]heptan-2-yl)(2-(6-(4-aminopiperidin-1-yl)-1-(cyclopropylmethyl)-1H-indol-2-yl)-4-methoxy-3-methylbenzo[b]thiophen-6-yl)methanone]: 38 nM; `COc1cc(C(=O)N2C[C@H](N)C[C@@H](F)C2)cn2nc(-c3cc4cccc(C5CCN(C(=O)C6CC(O)C6)CC5)c4n3CC3CC3)c(C)c12` (single isomer, unassigned) [Example 390]: 5 nM; `Cc1cc(C(N)=O)c(F)cc1-c1ccc2cc(-c3nn4cc(C(=O)N5CC6CCC5[C@@H]6N)ccc4c3C)n(CC3CC3)c2n1` (stereo partly drawn) [Example 305, 4-(2-{6-[(7R)-7-Amino-2-azabicyclo[2.2.1]heptane-2-carbonyl]-3-methylpyrazolo[1,5-a]pyridin-2-yl}-1-(cyclopropylmethyl)-1H-pyrrolo[2,3-b]pyridin-6-yl)-2-fluoro-5-methylbenzamide]: 40 nM. In the case of `COc1cc(C(=O)N2C[C@H](N)C[C@@H](F)C2)cn2nc(-c3cc4cccc(OC[C@H]5CCC(=O)N5)c4n3CC3CC3)c(C)c12` [Example 550, (R)-5-(((2-(6-((3R,5R)-3-amino-5-fluoropiperidine-1-carbonyl)-4-methoxy-3-methylpyrazolo[1,5-a]pyridin-2-yl)-1-(cyclopropylmethyl)-1H-indol-7-yl)oxy)methyl)pyrrolidin-2-one], the IC50 was 50 nM.

Take `COc1cc(C(=O)N2CCC[C@@H](N)C2)cn2nc(-c3cc4ccc(-c5ccccc5CO)cc4n3CC3CC3)c(C)c12` [Example 233, [2-(2-{6-[(3R)-3-Aminopiperidine-1-carbonyl]-4-methoxy-3-methylpyrazolo[1,5-a]pyridin-2-yl}-1-(cyclopropylmethyl)-1H-indol-6-yl)phenyl]methanol]: the IC50 was determined as 620 nM. Next, `Cc1c(-c2cc3cccc(C4CCN(C(=O)C5CC(O)C5)CC4)c3n2CC2CC2)nn2cc(C(=O)N3CCC[C@@H](N)C3)ccc12` (mixture of isomers) [Example 465, (R)-(3-aminopiperidin-1-yl)(2-(1-(cyclopropylmethyl)-7-(1-(3-hydroxycyclobutane-1-carbonyl)piperidin-4-yl)-1H-indol-2-yl)-3-methylpyrazolo[1,5-a]pyridin-6-yl)methanone]: 130 nM. Next, `COc1cc(C(=O)N2CC3CCC2[C@@H]3N)cc2oc(-c3cc4ccc(-c5ccn6c(C)nnc6c5)cc4n3CC3CC3)c(C)c12` (stereo partly drawn) [Example 157, ((7R)-7-Amino-2-azabicyclo[2.2.1]heptan-2-yl)(2-(1-(cyclopropylmethyl)-6-(3-methyl-[1,2,4]triazolo[4,3-a]pyridin-7-yl)-1H-indol-2-yl)-4-methoxy-3-methylbenzofuran-6-yl)methanone]: 95 nM; `COc1cc(C(=O)N2C[C@H](N)C[C@@H](F)C2)cn2nc(-c3cc4ccc(C)nc4n3CC3CC3)c(C)c12` [Example 17, ((3R,5R)-3-Amino-5-fluoropiperidin-1-yl)(2-(1-(cyclopropylmethyl)-6-methyl-1H-pyrrolo[2,3-b]pyridin-2-yl)-4-methoxy-3-methylpyrazolo[1,5-a]pyridin-6-yl)-methanone]: 75 nM. On to `Cc1c(-c2cc3ccc(-c4ccc(CNS(C)(=O)=O)cc4)cc3n2CC2CC2)nn2cc(C(=O)N3C[C@H](N)C[C@@H](F)C3)ccc12` [Example 370, N-{[4-(2-{6-[(3R,5R)-3-Amino-5-fluoropiperidine-1-carbonyl]-3-methylpyrazolo[1,5-a]pyridin-2-yl}-1-(cyclopropylmethyl)-1H-indol-6-yl)phenyl]methyl}methanesulfonamide], for which the IC50 worked out at 130 nM. Take `Cc1c(-c2cc3ccc(-c4cccc(CNS(C)(=O)=O)c4)cc3n2CC2CC2)nn2cc(C(=O)N3C[C@H](N)C[C@@H](F)C3)ccc12` [Example 367, N-{[3-(2-{6-[(3R,5R)-3-Amino-5-fluoropiperidine-1-carbonyl]-3-methylpyrazolo[1,5-a]pyridin-2-yl}-1-(cyclopropylmethyl)-1H-indol-6-yl)phenyl]methyl}methanesulfonamide]: the IC50 stood at 1000 nM.

Take `Cc1c(-c2cc3ccc(-c4cccc5[nH]nc(F)c45)cc3n2CC2CC2)nn2cc(C(=O)N3CC4CCC3[C@@H]4N)ccc12` (stereo partly drawn) [Example 327, (7R)-2-{2-[1-(Cyclopropylmethyl)-6-(3-fluoro-1H-indazol-4-yl)-1H-indol-2-yl]-3-methylpyrazolo[1,5-a]pyridine-6-carbonyl}-2-azabicyclo[2.2.1]heptan-7-amine]: the half-inhibitory concentration (IC50) came to 70 nM. The value for `COc1cc(C(=O)N2CCC[C@@H](N)C2)cn2nc(-c3cc4ccc(-c5cccc(CNS(C)(=O)=O)c5)cc4n3CC3CC3)c(C)c12` [Example 235, N-{[3-(2-{6-[(3R)-3-Aminopiperidine-1-carbonyl]-4-methoxy-3-methylpyrazolo[1,5-a]pyridin-2-yl}-1-(cyclopropylmethyl)-1H-indol-6-yl)phenyl]methyl}methanesulfonamide] was 250 nM; that for `Cc1c(-c2cc3ccc(-c4cccc5[nH]ncc45)nc3n2CC2CC2)nn2cc(C(=O)N3CCC[C@@H](N)C3)ccc12` [Example 311, (3R)-1-{2-[1-(Cyclopropylmethyl)-6-(1H-indazol-4-yl)-1H-pyrrolo[2,3-b]pyridin-2-yl]-3-methylpyrazolo[1,5-a]pyridine-6-carbonyl}piperidin-3-amine] was 210 nM. The value for `COc1cc(C(=O)N2CCC[C@@H](N)C2)cn2nc(-c3cc4ccc(N5CCC(CC(=O)N(C)C)CC5)cc4n3CC3CC3)c(C)c12` [Example 250, 2-[1-(2-{6-[(3R)-3-Aminopiperidine-1-carbonyl]-4-methoxy-3-methylpyrazolo[1,5-a]pyridin-2-yl}-1-(cyclopropylmethyl)-1H-indol-6-yl)piperidin-4-yl]-N,N-dimethylacetamide] was 90 nM. Take `Cc1c(-c2cc3ccc(Cl)nc3n2CC2CC2)nn2cc(C(=O)N3C[C@H](N)C[C@@H](F)C3)cc(F)c12` [Example 53, ((3R,5R)-3-Amino-5-fluoropiperidin-1-yl)(2-(6-chloro-1-(cyclopropylmethyl)-1H-pyrrolo[2,3-b]pyridin-2-yl)-4-fluoro-3-methylpyrazolo[1,5-a]pyridin-6-yl)methanone]: the IC50 came to 446 nM. Consider `Cc1c(-c2cc3ccc(-c4ccc5cn[nH]c5c4)nc3n2CC2CC2)nn2cc(C(=O)N3CC4CCC3[C@@H]4N)ccc12` (stereo partly drawn) [Example 298, (7R)-2-{2-[1-(Cyclopropylmethyl)-6-(1H-indazol-6-yl)-1H-pyrrolo[2,3-b]pyridin-2-yl]-3-methylpyrazolo[1,5-a]pyridine-6-carbonyl}-2-azabicyclo[2.2.1]heptan-7-amine], for which the IC50 turned out to be 210 nM.

In the case of `Cc1c(-c2cc3ccc(C(C)O)nc3n2CC2CC2)nn2cc(C(=O)N3CCC[C@@H](N)C3)ccc12` (mixture of isomers) [Example 385, 1-(2-{6-[(3R)-3-Aminopiperidine-1-carbonyl]-3-methylpyrazolo[1,5-a]pyridin-2-yl}-1-(cyclopropylmethyl)-1H-pyrrolo[2,3-b]pyridin-6-yl)ethan-1-ol], the IC50 stood at 270 nM. Take `COc1cc(C(=O)N2CCC[C@@H](N)C2)cn2nc(-c3cc4cccc(OCC5CNC(=O)C5)c4n3CC3CC3)c(C)c12` (single isomer, unassigned) [Example 564]: the IC50 stood at 40 nM.

Consider `COc1cc(C(=O)N2CCC[C@@H](N)C2)cn2nc(-c3cc4cccc(C5CN(C(=O)[C@H](C)OC)C5)c4n3CC3CC3)c(C)c12` [Example 523, (S)-1-(3-(2-(6-((R)-3-Aminopiperidine-1-carbonyl)-4-methoxy-3-methylpyrazolo[1,5-a]pyridin-2-yl)-1-(cyclopropylmethyl)-1H-indol-7-yl)azetidin-1-yl)-2-methoxypropan-1-one], for which the IC50 turned out to be 400 nM. Next, `Cc1c(-c2cc3cccc(C4CCN(C(=O)[C@H]5CC[C@H](O)CC5)CC4)c3n2CC2CC2)nn2cc(C(=O)N3C[C@H](N)C[C@@H](F)C3)ccc12` [Example 451, ((3R,5R)-3-amino-5-fluoropiperidin-1-yl)(2-(1-(cyclopropylmethyl)-7-(1-((1r,4r)-4-hydroxycyclohexane-1-carbonyl)piperidin-4-yl)-1H-indol-2-yl)-3-methylpyrazolo[1,5-a]pyridin-6-yl)methanone]: 10 nM.

Source of the values: patent US12473304B2, “Heterocyclic PAD4 inhibitors” (BRISTOL-MYERS SQUIBB COMPANY, priority 2020, dated 2025).
